Assay results reported in patent US9221756B2, “Pyrrole derivatives” (priority 2011, dated 2015).

Columns and labels:
[1] = molecular target: T1, pneumolysin (Streptococcus pneumoniae serotype 2, UniProt Q04IN8); assay: Inhibition of the haemolytic activity of pneumolysin (sheep erythrocytes); type: cell-based; details: IC50, inhibition of pneumolysin-induced haemolysis of sheep erythrocytes
[2] = Conversion of prodrug derivatives to active inhibitors in mouse plasma; type: in vitro ADME; details: 37° C., 10 μM start, prodrug remaining; for [ ] (μM) t0 min. Prodrug: 0 min; for [ ] (μM) t15 min. Prodrug: 15 min; for [ ] (μM) t30 min. Prodrug: 30 min; for [ ] (μM) t60 min. Prodrug: 60 min; for [ ] (μM) t120 min. Prodrug: 120 min
Method: (§1) The samples were then analysed by LC-MS/MS to obtain the amount of active compound appearing and prodrug derivative remaining over time. The mouse plasma assay system is considered to be a good model for human behaviour. Nevertheless data obtained in a human plasma assay system was obtained in some cases.
(§2) Prodrug derivatives were assessed in the mouse and human plasma stability assay at a concentration of 10 μM. Test compounds were diluted in DMSO to a final stock concentration of 10 mM. For the purpose of the assay, the stocks prepared were further diluted in DMSO to a concentration of 400 μM and […] were added to 195 μl of mouse or human plasma (pH 7.4) and then incubated at 37° C. The final concentration of DMSO in the plate was 2.5% (v/v). Reactions were terminated at 0, 15, 30, 60 and 120 min after incubation by adding 400 μl of acetonitrile containing 0.55 μM metoprolol and 1% (v/v) formic acid. The plate was then centrifuged at 3000 rpm, for 45 min, at 4° C. 80 μl of supernatant were transferred into a conical bottom 96 well glass coated plate. 40 μl of water were added prior to analysis for prodrug derivative and active species by LC-MS/MS. This assay was performed by a contract research organisation, Cyprotex Discovery Limited, UK, at the request of the inventors at Leicester.
(§3) (1) The active compound was quantified using a 6 point calibration curve prepared in deactivated mouse and human plasma. (2) The percentage of parent compound remaining at each time point relative to 0 min sample was calculated from LC-MS/MS peak area ratios (compound peak area/internal standard peak area). This percentage was then used to determine the concentration of the parent compound at each time point in reference to the starting concentration (10 μM) at time 0 min.

[3] = type: in vitro ADME; details: human plasma; for [ ] (μM) t0 min. Prodrug (Human) / [ ] (μM) t15 min. Prodrug (Human) / [ ] (μM) t30 min. Prodrug (Human) / [ ] (μM) t60 min. Prodrug (Human) / [ ] (μM) t120 min. Prodrug (Human): 37° C., 10 μM start, prodrug remaining; for [ ] (μM) t15 min. Prodrug (Human): 15 min; for [ ] (μM) t30 min. Prodrug (Human): 30 min; for [ ] (μM) t60 min. Prodrug (Human): 60 min; for [ ] (μM) t120 min. Prodrug (Human): 120 min
Method: as §1, §2, §3

[4] = molecular target: T2, Streptolysin O (SLO) (Streptococcus pyogenes serotype M3, UniProt P0DF97); assay: Inhibition of the haemolytic activity of Streptolysin O; type: cell-based, Group A Streptococci; details: toxin SLO; haemolysis assay protocol of Section A
T2 sequence (P0DF97 34-571): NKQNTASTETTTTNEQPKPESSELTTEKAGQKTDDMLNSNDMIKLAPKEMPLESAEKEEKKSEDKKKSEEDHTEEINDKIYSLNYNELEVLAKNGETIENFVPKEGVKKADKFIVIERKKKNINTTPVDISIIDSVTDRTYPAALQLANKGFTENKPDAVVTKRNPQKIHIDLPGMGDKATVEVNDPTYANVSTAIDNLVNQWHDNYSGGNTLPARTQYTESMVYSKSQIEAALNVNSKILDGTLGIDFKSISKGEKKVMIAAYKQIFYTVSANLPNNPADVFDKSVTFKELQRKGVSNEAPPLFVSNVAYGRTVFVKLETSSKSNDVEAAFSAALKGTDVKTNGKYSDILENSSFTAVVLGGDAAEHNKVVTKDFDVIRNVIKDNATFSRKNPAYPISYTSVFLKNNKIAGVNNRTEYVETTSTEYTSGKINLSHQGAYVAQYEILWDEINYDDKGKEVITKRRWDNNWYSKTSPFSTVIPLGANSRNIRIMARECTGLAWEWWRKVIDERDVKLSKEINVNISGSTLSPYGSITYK

[5] = molecular target: Perfringolysin O (PFO) (Clostridium perfringens, UniProt P0C2E9); assay: cell-based
Chain of Perfringolysin O (PFO) (P0C2E9 29-500 limits assumed): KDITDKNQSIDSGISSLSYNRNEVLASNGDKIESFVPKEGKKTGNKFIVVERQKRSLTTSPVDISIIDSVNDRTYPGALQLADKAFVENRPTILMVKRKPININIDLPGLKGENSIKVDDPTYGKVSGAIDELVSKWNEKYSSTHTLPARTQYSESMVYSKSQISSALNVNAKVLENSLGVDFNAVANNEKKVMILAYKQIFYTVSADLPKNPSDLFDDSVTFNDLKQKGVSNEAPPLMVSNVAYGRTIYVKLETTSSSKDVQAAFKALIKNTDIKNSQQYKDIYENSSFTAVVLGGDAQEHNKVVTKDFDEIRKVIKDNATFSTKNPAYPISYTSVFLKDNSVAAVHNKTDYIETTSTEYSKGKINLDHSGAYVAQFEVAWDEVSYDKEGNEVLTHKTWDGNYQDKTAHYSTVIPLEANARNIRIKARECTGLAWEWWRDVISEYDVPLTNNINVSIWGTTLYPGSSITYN

[6] = molecular target: Listeriolysin O (LLO) (Listeria monocytogenes serovar 1/2a, UniProt P13128); assay: Inhibition of the haemolytic activity of Listeriolysin O; type: cell-based; details: toxin LLO; haemolysis assay protocol of Section A
Chain of Listeriolysin O (LLO) (P13128 25-529): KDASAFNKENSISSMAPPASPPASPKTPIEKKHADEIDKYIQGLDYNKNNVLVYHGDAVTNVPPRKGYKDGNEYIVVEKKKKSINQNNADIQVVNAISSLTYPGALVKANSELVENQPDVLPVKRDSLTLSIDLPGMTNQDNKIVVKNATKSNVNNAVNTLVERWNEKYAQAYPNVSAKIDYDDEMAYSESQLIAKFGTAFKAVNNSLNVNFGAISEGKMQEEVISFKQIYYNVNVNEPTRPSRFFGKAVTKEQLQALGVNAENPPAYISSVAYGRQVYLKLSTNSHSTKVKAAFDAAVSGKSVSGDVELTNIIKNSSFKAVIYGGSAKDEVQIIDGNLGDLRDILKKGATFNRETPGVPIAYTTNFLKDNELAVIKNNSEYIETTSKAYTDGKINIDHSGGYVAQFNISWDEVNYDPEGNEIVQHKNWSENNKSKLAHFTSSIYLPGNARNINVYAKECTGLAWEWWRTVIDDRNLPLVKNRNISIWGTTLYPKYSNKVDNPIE

[7] = molecular target: Anthrolysin O (ALO) (Bacillus anthracis, UniProt A0A6L7HHW7); assay: cell-based
Chain of Anthrolysin O (ALO) (A0A6L7HHW7 35-512 limits assumed): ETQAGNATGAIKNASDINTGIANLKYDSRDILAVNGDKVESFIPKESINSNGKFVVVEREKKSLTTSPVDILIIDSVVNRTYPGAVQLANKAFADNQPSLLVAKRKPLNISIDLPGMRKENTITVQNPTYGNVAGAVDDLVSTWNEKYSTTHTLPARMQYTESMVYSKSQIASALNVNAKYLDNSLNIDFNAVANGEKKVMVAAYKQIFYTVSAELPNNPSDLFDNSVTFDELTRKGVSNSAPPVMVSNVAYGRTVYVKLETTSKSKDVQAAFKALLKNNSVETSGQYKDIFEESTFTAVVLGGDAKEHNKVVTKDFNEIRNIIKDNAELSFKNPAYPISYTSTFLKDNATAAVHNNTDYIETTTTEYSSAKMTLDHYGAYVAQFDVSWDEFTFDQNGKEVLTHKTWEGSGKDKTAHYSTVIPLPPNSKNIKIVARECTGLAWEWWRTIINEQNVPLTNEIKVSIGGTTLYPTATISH

[8] = molecular target: Suilysin (SLY) (Streptococcus suis, UniProt Q55996); assay: Inhibition of the haemolytic activity of Suilysin; type: cell-based; details: toxin SLY; haemolysis assay protocol of Section A
Chain of Suilysin (SLY) (Q55996 28-497 limits assumed): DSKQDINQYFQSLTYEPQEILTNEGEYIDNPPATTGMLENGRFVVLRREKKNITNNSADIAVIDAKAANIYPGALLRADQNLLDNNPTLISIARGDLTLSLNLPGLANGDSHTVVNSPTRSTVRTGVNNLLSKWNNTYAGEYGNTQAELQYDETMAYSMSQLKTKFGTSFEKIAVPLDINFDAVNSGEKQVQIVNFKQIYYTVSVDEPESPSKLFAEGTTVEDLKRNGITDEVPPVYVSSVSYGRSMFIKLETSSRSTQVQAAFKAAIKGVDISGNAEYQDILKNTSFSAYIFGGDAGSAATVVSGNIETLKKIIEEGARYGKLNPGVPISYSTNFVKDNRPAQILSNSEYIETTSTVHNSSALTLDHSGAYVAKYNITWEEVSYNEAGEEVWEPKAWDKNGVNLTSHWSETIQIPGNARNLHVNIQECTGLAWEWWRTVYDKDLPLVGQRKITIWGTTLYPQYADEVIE

[9] = molecular target: T1, pneumolysin; assay: Ex vivo meningitis assay: effect of pneumolysin on ciliary function of cultured ependymal cells; type: cell-based; details: rat ependymal cells; UL2-001 2.00 μM; FIG. 3
From the text: The ependymal ciliated cells line the cerebral ventricles of the brain and the central canal of the spinal cord and are covered with cilia responsible for the circulation of the cerebrospinal fluid (CSF) around the central nervous system. This layer acts as a selective brain barrier to and from the cerebrospinal fluid and plays a role in controlling the CSF volume. […] This model is based on culturing and differentiating ciliated ependymal cells from neonate rat brains, which recreate the in vivo situation, where cells lining the brain ventricles, are exposed to S. pneumoniae and its toxic products.
Ependymal cell cultures were prepared by the method previously described [Microb. Pathog. (1999) 27 303-309]. Tissue culture trays were coated with bovine fibronectin and incubated at 37° C. in 5% (v/v) CO2 for 2 h before use. […]
After approximately two weeks, the cells were fully ciliated and ready for experiments. […] Beating cilia were recorded before and after exposure over 30 min, with a digital high-speed video camera at a rate of 500 frames/s. The recorded video sequences were played back at reduced frame rates and the ciliary beat frequency (CBF) was determined by the following equation: […]

[10] = tested on: Streptococcus pneumoniae strain D39; assay: In vivo efficacy assay using a mouse pneumonia model; details: MF1 mice; 0.8 mg/kg intranasally every 6 h; 36 h to 60 h post-infection; p<0.05; FIG. 9

T1 sequence (Q04IN8 whole entry): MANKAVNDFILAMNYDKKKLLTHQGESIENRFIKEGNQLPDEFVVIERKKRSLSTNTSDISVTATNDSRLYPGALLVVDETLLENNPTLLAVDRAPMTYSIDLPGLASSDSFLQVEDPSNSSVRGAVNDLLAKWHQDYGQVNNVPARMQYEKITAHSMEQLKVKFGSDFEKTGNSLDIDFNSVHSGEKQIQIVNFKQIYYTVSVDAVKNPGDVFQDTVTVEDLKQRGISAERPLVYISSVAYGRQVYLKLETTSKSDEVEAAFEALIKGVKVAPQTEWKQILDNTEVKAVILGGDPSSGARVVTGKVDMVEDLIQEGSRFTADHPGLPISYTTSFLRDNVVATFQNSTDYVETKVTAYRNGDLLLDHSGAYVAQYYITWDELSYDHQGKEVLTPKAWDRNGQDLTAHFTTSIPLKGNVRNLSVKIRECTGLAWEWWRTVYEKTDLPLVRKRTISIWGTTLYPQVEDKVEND

| SMILES | IC50 ([1]; class symbols of Table 1) [µM] | [ ] (μM) t0 min. Prodrug [2] [µM] | [ ] (μM) t15 min. Prodrug [2] [µM] | [ ] (μM) t30 min. Prodrug [2] [µM] | [ ] (μM) t60 min. Prodrug [2] [µM] | [ ] (μM) t120 min. Prodrug [2] [µM] | [ ] (μM) t0 min. Active (Human) (UL1-012) ([3]; 10 μM prodrug, active UL1-012 appearing, 0 min) | [ ] (μM) t0 min. Prodrug (Human) ([3]; 0 min) [µM] | [ ] (μM) t15 min. Prodrug (Human) [3] [µM] | [ ] (μM) t30 min. Prodrug (Human) [3] [µM] | [ ] (μM) t60 min. Prodrug (Human) [3] [µM] | [ ] (μM) t120 min. Prodrug (Human) [3] [µM] | IC50 ([1]; specific values) [µM] | IC50 [4] [µM] | IC50 [5] [µM] | IC50 [6] [µM] | IC50 [7] [µM] | IC50 [8] [µM] | ciliary beating frequency (CBF) in the presence of pneumolysin [9] | percentage of survival [10] [%] |
| --- | --- | --- | --- | --- | --- | --- | --- | --- | --- | --- | --- | --- | --- | --- | --- | --- | --- | --- | --- | --- |
| CCOC(=O)c1c(OC(=O)C(C)(C)COCCOCCOC)c(OC(=O)C(C)(C)COCCOCCOC)c(C(=O)N(C)C)n1-c1ccc(OC)cc1 [UL1-111, 2-(dimethylcarbamoyl)-5-(ethoxycarbonyl)-1-(4-methoxyphenyl)-1H-pyrrole-3,4-diyl bis(3-(2-(2-methoxyethoxy)ethoxy)-2,2-dimethylpropanoate)] | < 10 | 10 | 4.74 | 2.47 | 1.16 | 0.47 | <LOQ | 10 | 2.84 | 0.80 | 0.09 | 0.00 |  |  |  |  |  |  |  |  |
| COc1ccc(-n2c(C(=O)N(C)C)c(OC(=O)C(C)C)c(OC(=O)C(C)C)c2C(=O)N(C)C)cc1 [UL1-114, 2,5-bis(dimethylcarbamoyl)-1-(4-methoxyphenyl)-1H-pyrrole-3,4-diyl bis(2-methylpropanoate)] | 10 to 20 | 10 | 0 | 0 | 0 | 0 |  | 10 | 9.53 | 9.48 | 8.22 | 7.22 |  |  |  |  |  |  |  |  |
| CCOC(=O)c1c(OCOP(=O)(O)O)c(O)c(C(=O)N(C)C)n1-c1ccc(OC)cc1 [UL1-115, ethyl 5-(dimethylcarbamoyl)-4-hydroxy-1-(4-methoxyphenyl)-3-((phosphonooxy)methoxy)-1H-pyrrole-2-carboxylate] | 20 to 60 | 10 | 7.56 | 4.04 | 1.54 | 0.38 |  | 10 | 10.8 | 9.41 | 6.69 | 2.98 |  |  |  |  |  |  |  |  |
| CCOC(=O)c1c(OC(=O)C(C)(C)COCCOCCOP(=O)(O)O)c(OC(=O)C(C)(C)COCCOCCOP(=O)(O)O)c(C(=O)N(C)C)n1-c1ccc(OC)cc1 [UL1-117, 2-(dimethylcarbamoyl)-5-(ethoxycarbonyl)-1-(4-methoxyphenyl)-1H-pyrrole-3,4-diyl bis(2,2-dimethyl-3-(2-(2-(phosphonooxy)ethoxy)ethoxy)propanoate)] | 10 to 20 | 10 | 5.92 | 4.26 | 1.41 | 0.21 |  | 10 | 14.9 | 10.1 | 4.28 | 1.12 |  |  |  |  |  |  |  |  |
| CCOC(=O)c1c(O)c(O)c(C(=O)OCC)n1-c1ccc(OC)cc1 [UL2-001, diethyl 3,4-dihydroxy-1-(4-methoxyphenyl)-1H-pyrrole-2,5-dicarboxylate] | < 10 |  |  |  |  |  |  |  |  |  |  |  | 0.3 | 20 to 60 | < 10 | < 10 | < 10 | < 10 | No significant loss of the CBF | 60 |
